# In patent US20180327367A1, “MACROCYCLIC BROAD SPECTRUM ANTIBIOTICS” (priority 2015, published 2018):
# Like-named read-outs stand apart in the source and are kept apart here.
# How the values were obtained:
# [1] = tested on: Escherichia coli MC4100 harboring the IMP4213 (E. coli IMP); assay: microbe, parasite or virus in culture; assay type: cell-based; conditions: Escherichia coli, 22 h
# Procedure, shortened: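 Top conc 4 μg/mL (protocol 2) or 0.5 μg/mL (protocol 3), 2-fold series, 10 points. Final OD600 0.0005; 22 h, 35° C. IMP4213 = permeable outer membrane.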
# [2] = tested on: Escherichia coli ATCC 25922; assay: Minimum inhibitory concentration, broth micro-dilution (CLSI), E. coli; assay type: cell-based; conditions: Escherichia coli, ATCC25922, 22 h
# [3] = tested on: Methicillin Resistant Staphylococcus aureus strain USA 300, NRS384; assay: Minimum inhibitory concentration, broth micro-dilution (CLSI), S. aureus; assay type: cell-based; conditions: Staphylococcus aureus, MRSA / NRS 384 / USA300, 22 h
# Procedure, shortened: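 CLSI broth microdilution in cation-adjusted Mueller Hinton Broth with 0.002% Tween-80; inoculum final OD600 0.0005, 22 hours at 35° C. Ten 2-fold dilutions starting at 4 μg/mL (protocol 2) or 0.5 μg/mL (protocol 3).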
# [4] = molecular target: T1, SpsB (Staphylococcus aureus signal peptidase) (Staphylococcus aureus, UniProt P0A070); assay: cell-based; assay type: biochemical; conditions: SpsB IC50, whole-cell S. aureus (USA300 background, overexpressing SpsB) as SpsB source; fluorogenic peptide substrate, kinetic read 30 min
# T1 construct: This assay uses a suspension of Staphylococcus aureus cells as a source of SpsB instead of recombinant SpsB protein; endogenous in cells; host or cells: S. aureus, USA300 background, overexpressing SpsB (whole-cell suspension from frozen pellets)
# T1 sequence (P0A070 whole entry): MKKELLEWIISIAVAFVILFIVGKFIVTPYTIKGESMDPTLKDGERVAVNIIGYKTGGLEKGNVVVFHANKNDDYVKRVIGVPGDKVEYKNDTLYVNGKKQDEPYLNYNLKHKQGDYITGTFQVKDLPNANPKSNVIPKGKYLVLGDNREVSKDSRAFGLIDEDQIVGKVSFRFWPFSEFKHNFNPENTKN
# Procedure, shortened: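 Cleavage of an internally quenched (Dabcyl)βAla-KPAKAAE(Edans) peptide, added as 20 μM solution mixed 1:1 with cells, was followed for 30 min at 340/490 nm. SpsB came from a suspension of SpsB-overexpressing USA300 S. aureus in Tween-80-containing PBS buffer. Slopes plotted against 3-fold compound dilutions gave IC50.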
# [5] = tested on: Escherichia coli strain ATCC 25922; assay: Neutropenic thigh infection model; assay type: in vivo; conditions: neutropenic CD-1 mice, E. coli ATCC 25922, infusion 23 hours, 24 hours post infection, FIG. 1
# Method: The ability of a compound to inhibit an infection of a bacterial pathogen can be measured using a murine neutropenic thigh infection model. The reduction of bacterial burden is a measure of antibacterial activity in vivo.
# Jugular vein cannulated CD-1 mice were subjected to induced neutropenia (<100 cells/mm^3) by injecting 150 mg/kg and 100 mg/kg cyclophosphamide at day −5 and day −2 respectively. At day −1, saline was infused at […] for 12 hours using Harvard Apparatus PHD 2000 Infusion pumps. At day 0, mice were infected in the thigh muscle with 1×10^5 CFU/50 μL of Escherichia coli strain ATCC 25922. […]
# At 24 hours post infection, bacterial burden in the thigh muscle was determined by plating the tissue homogenate in serial dilutions on blood agar plates.
# [6] = read-out: MIC (μg/mL) E. coli IMP, E. coli MC4100 IMP4213, increased outer-membrane permeability, 35° C., 22 hours
# [7] = E. coli ATCC 25922, 35° C., 22 hours, read-out: MIC (μg/mL) E. coli
# [8] = MRSA USA 300 NRS384, 35° C., 22 hours, read-out: MIC (μg/mL) S. aureus
# [9] = read-out: MIC (μg/mL) E. coli, E. coli ATCC 25922, 35° C., 22 hours
# [10] = read-out: MIC (μg/mL) S. aureus, MRSA USA 300 NRS384, 35° C., 22 hours
SMILES,"MIC [1, 6] [µg/mL]","MIC [2, 7] [µg/mL]","MIC [3, 8] [µg/mL]",IC50 [4] [nM],bacterial burden in the thigh muscle [5],"MIC [2, 9] [µg/mL]","MIC [3, 10] [µg/mL]",MIC ([1]; read-out: MIC (μg/mL) E. coli IMP) [µg/mL],MIC ([2]; read-out: MIC (μg/mL) E. coli) [µg/mL],MIC ([3]; read-out: MIC (μg/mL) S. aureus) [µg/mL]
CCCCc1ccc(-c2ccc(C(=O)N[C@@H](CCCN)C(=O)N(C)[C@@H]3C(=O)N[C@@H](C)C(=O)N[C@H](C(=O)NCC#N)Cc4ccc(OCCN)c(c4)-c4cc3ccc4OCCN)cc2)cc1 [Compound 135],0.023,0.22,0.052,0.54,dose-dependent reduction in bacterial burden,–,–,–,–,–
CCCCCCCCc1ccc(C(=O)N(C)[C@@H]2C(=O)N[C@@H](C)C(=O)N[C@H](C(=O)NCC#N)Cc3ccc(OCCN)c(c3)-c3cc2ccc3OCCN)cc1 [Compound 476],8,32,2,86,–,–,–,–,–,–
CCCCc1ccc(-c2ccc(C(=O)N[C@@H](CC3CCNCC3)C(=O)N(C)[C@@H]3C(=O)N[C@@H](C)C(=O)N[C@H](C(=O)NCC#N)Cc4ccc(OCCN)c(c4)-c4cc3ccc4OCCN)cc2)cc1 [Compound 477],0.063,4,0.063,0.68,–,–,–,–,–,–
CCCCc1ccc(-c2ccc(C(=O)N[C@@H](Cc3c[nH]cn3)C(=O)N(C)[C@@H]3C(=O)N[C@@H](C)C(=O)N[C@H](C(=O)NCC#N)Cc4ccc(OCCN)c(c4)-c4cc3ccc4OCCN)cc2)cc1 [Compound 478],0.19,6,0.19,1.5,–,–,–,–,–,–
CCCCCCc1ccc(C(=O)N2C[C@@H](N)CC2C(=O)N(C)[C@@H]2C(=O)N[C@@H](C)C(=O)N[C@H](C(=O)NCC#N)Cc3ccc(OCCN)c(c3)-c3cc2ccc3OCCN)c(C)c1 (some centres unmarked) [Compound 480],0.012,0.5,0.19,0.92,–,–,–,–,–,–
CCCCCCCCCCCCCC(=O)N1C[C@@H](N)CC1C(=O)N(C)[C@@H]1C(=O)N[C@@H](C)C(=O)N[C@H](C(=O)NCC#N)Cc2ccc(OCCN)c(c2)-c2cc1ccc2OCCN (some centres unmarked) [Compound 481],0.0078,0.25,0.047,1.2,–,–,–,–,–,–
C[C@@H]1NC(=O)[C@@H](N(C)C(=O)[C@H](CCCCN)NC(=O)c2ccc(-c3ccc(Cl)cc3)cc2)c2ccc(OCCN)c(c2)-c2cc(ccc2OCCN)C[C@@H](C(=O)NCC#N)NC1=O [Compound 482],0.13,–,–,1.6,–,16,0.13,–,–,–
C[C@@H]1NC(=O)[C@@H](N(C)C(=O)[C@H](CCCCN)NC(=O)c2ccc(-c3ccc(Cl)cc3)cc2)c2ccc(OCCN)c(c2)-c2cc(ccc2OCCN)C[C@@H](C(=O)N[C@@H](C)C#N)NC1=O [Compound 483],0.5,–,–,6.8,–,48,2,–,–,–
CCCCCCCCCCCC(=O)N[C@@H](C[C@@H]1CCCN1)C(=O)N(C)[C@@H]1C(=O)N[C@@H](C)C(=O)N[C@H](C(=O)NCC#N)Cc2ccc(OCCN)c(c2)-c2cc1ccc2OCCN [Compound 484],0.063,8,0.063,1,–,–,–,–,–,–
CCCCc1ccc(-c2ccc(C(=O)N[C@@H](CCCCN)C(=O)N(C)[C@@H]3C(=O)N[C@@H](C)C(=O)N[C@H](C(=O)NC4(C#N)CC4)Cc4ccc(OCCN)c(c4)-c4cc3ccc4OCCN)cc2)cc1 [Compound 494],0.5,16,1,2.1,–,–,–,–,–,–
CCCCc1ccc(-c2ccc(C(=O)N[C@@H](CCCCN)C(=O)N(C)[C@@H]3C(=O)N[C@@H](C)C(=O)N[C@H](C(=O)NC4(C#N)CC4)Cc4ccc(O)c(c4)-c4cc3ccc4OCCN)cc2)cc1 [Compound 495],1,16,3,20,–,–,–,–,–,–
CCCCc1ccc(-c2ccc(C(=O)N[C@@H](CCCCN)C(=O)N(C)[C@@H]3C(=O)N[C@@H](C)C(=O)N[C@H](C(=O)NC(C)(C)C#N)Cc4ccc(OCCN)c(c4)-c4cc3ccc4OCCN)cc2)cc1 [Compound 496],0.5,16,3,17,–,–,–,–,–,–
CCCCc1ccc(-c2ccc(C(=O)N[C@@H](CCCN)C(=O)N(C)[C@@H]3C(=O)N[C@@H](C)C(=O)N[C@H](C(=O)N4CC4C#N)Cc4ccc(OCCN)c(c4)-c4cc3ccc4OCCN)cc2)cc1 (some centres unmarked) [Compound 520],–,–,–,0.73,–,–,–,0.19,6,0.38
